According to patent US8003604B2, “Hepatitis C virus inhibitors” (priority 2006, dated 2011):

Key:
[1] = target: T1, HCV NS3/4A protease complex (Hepatitis C virus genotype 1a, UniProt P27958, C1454S/C1711G); assay: FRET peptide assay to monitor HCV NS3/4A proteolytic activity; type: biochemical
T1 construct: DNA encoding the recombinant HCV NS3/4A protease complex (amino acids 1027 to 1711) for these strains were manipulated; inferred from pET21b vector and Ni-NTA purification; made in house; host or cells: Escherichia coli BL21 (DE3), pET21b vector
T1 sequence (P27958 1027-1711 C1454S/C1711G, one chain of several): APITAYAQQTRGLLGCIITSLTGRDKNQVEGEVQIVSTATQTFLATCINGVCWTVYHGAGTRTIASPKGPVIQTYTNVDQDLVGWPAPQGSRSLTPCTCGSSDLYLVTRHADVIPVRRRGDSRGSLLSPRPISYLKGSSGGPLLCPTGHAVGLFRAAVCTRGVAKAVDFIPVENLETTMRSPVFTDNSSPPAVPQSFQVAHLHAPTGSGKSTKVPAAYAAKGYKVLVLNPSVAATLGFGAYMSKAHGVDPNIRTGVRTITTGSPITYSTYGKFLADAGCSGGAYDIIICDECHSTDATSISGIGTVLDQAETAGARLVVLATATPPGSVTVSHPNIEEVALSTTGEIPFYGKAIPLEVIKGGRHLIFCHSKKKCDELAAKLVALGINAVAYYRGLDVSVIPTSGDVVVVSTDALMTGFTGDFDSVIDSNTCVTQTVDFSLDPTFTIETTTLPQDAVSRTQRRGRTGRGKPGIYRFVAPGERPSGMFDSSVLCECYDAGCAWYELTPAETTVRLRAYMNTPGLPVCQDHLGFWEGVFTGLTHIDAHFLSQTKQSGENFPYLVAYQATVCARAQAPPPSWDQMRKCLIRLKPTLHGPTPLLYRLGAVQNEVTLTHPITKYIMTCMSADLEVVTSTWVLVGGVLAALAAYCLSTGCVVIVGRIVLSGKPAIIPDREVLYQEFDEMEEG
Text: HCV NS3 protease complexes, derived from the BMS strain, H77 strain or J4L6S strain, were generated, as described below. These purified recombinant proteins were generated for use in a homogeneous assay (see below) to provide an indication of how effective compounds of the present disclosure would be in inhibiting HCV NS3 proteolytic activity.
Serum from an HCV-infected patient was obtained from Dr. T. Wright, San Francisco Hospital. An engineered full-length cDNA (compliment deoxyribonucleic acid) template of the HCV genome (BMS strain) was constructed from DNA fragments obtained by reverse transcription-PCR (RT-PCR) of serum RNA (ribonucleic acid) and using primers selected on the basis of homology between other genotype 1a strains. From the determination of the entire genome sequence, a genotype 1a was assigned to the HCV isolate according to the classification of Simmonds et al. (See P Simmonds, K A Rose, S Graham, S W Chan, F McOmish, B C Dow, E A Follett, P L Yap and H Marsden, J. Clin. Microbiol., 31(6), 1493-1503 (1993)). […]

[2] = test system: HCV replicon in HUH-7 cells; assay: HCV replicon FRET assay (confirmed in replicon luciferase reporter assay); type: cell-based; settings: Hepatitis C virus, 96 h; HUH-7 cells constitutively expressing HCV 1b replicon, 4 days incubation
Text: An HCV replicon whole cell system was established as described by Lohmann V, Korner F, Koch J, Herian U, Theilmann L, Bartenschlager R., Science 285(5424):110-3 (1999). This system enabled us to evaluate the effects of our HCV Protease compounds on HCV RNA replication. Briefly, using the HCV strain 1b sequence described in the Lohmann paper (Accession number: AJ238799), an HCV cDNA was synthesized by Operon Technologies, Inc. (Alameda, Calif.), and the full-length replicon was then assembled in plasmid pGem9zf(+) (Promega, Madison, Wis.) using standard molecular biology techniques. […]
The HCV replicon FRET assay was developed to monitor the inhibitory effects of compounds described in the disclosure on HCV viral replication. […] After 4 days, cells were first assessed for cytotoxicity using alamar Blue (Trek Diagnotstic Systems) for a CC50 reading. The toxicity of compound (CC50) was determined by adding 1/10th volume of alamar Blue to the media incubating the cells. After 4 h, the fluorescence signal from each well was read, with an excitation wavelength at 530 nm and an emission wavelength of 580 nm, using the Cytofluor Series 4000 (Perspective Biosystems). […]

SMILES | IC50 [1] | EC50 [2]
CC(C)(C)OC(=O)N[C@H]1CCCCC/C=C\C2C[C@@]2(C(=O)NS(=O)(=O)C2CC2)NC(=O)[C@@H]2C[C@@H](c3ccccc3)CN2C1=O (stereo partly shown) [Compound 1] | 18 nM | 639 nM
CC(C)(C)OC(=O)N[C@H]1CCCCC/C=C\[C@@H]2C[C@@]2(C(=O)NS(=O)(=O)C2CC2)NC[C@@H]2C[C@@](O)(c3ccccc3)CN2C1=O [Compound 2] | 9 nM | 389 nM
